Among the data in ChEMBL document CHEMBL1147873, “Synthesis and biological evaluation of novel analogues of dictyostatin” (Bioorg Med Chem Lett, 2007) are IC50 values, retold here.

What all share (format): functional, cell-based
For assay [1], the system named is ASPC1. In words: Cytotoxicity against human AsPC1 cells after 72 hrs by MTT assay. Particulars: ASPC1, 72 h. In general terms: Tetrazolium assays rely on reduction of a dye to a coloured formazan, in cell work by metabolically active cells.
In assay [2] the test system is DLD-1. In words: Cytotoxicity against human DLD1 cells after 72 hrs by MTT assay. The note with it: DLD-1, 72 h.
The test system of assay [3] is PANC-1. Kind of assay: Cytotoxicity against human PANC1 cells after 72 hrs by MTT assay. Particulars: PANC-1, 72 h.
For assay [4], the system named is NCI. In words: Cytotoxicity against human Taxol-adriamycin-resistant NCI cells after 72 hrs by MTT assay.

SMILES strings stand for the structures.

For orientation: IC50 means the concentration that gives 50% inhibition. Read a low IC50 as greater potency. Regarding `C=C/C=C\[C@H](C)[C@@H]1OC(=O)/C=C\C=C\[C@@H](C)[C@@H](O)C[C@H](OC)/C=C\[C@H](C)[C@H](O)[C@@H](C)C[C@@H](C)CC[C@@H](O)[C@@H]1C`, the IC50 is 31 nM in assay [1], 2.4 nM in assay [2], 9.7 nM in assay [3] and 8.2 nM in assay [4].
For the compound `C=C/C=C\[C@H](C)[C@@H]1OC(=O)/C=C\C=C\[C@@H](C)[C@@H](O)C[C@H](O)/C=C\[C@H](C)[C@H](O)[C@@H](C)C[C@@H](C)CC[C@@H](O)[C@@H]1C` [DICTYOSTATIN], 9.8 nM corresponded to half-maximal inhibition in assay [4] (IC50).
The same measure, in the same setting: for `C=C/C=C\[C@H](C)[C@H](OC(N)=O)[C@@H](C)[C@H](O)[C@@H](C)C/C(C)=C\[C@H](C)[C@@H](O)[C@@H](C)/C=C\[C@@H](O)C[C@@H]1OC(=O)[C@H](C)[C@@H](O)[C@H]1C` [DISERMOLIDE] the value was 160 nM.
In the case of `C=C/C=C\[C@H](C)[C@@H]1OC(=O)/C=C\C=C\[C@@H](C)[C@@H](O)C[C@@H](O)/C=C\[C@H](C)[C@H](O)[C@@H](C)CCCC[C@@H](O)[C@@H]1C`, the IC50 in assay [1] worked out at 2100 nM; in assay [2] it was 790 nM; in assay [3] it was 1500 nM; in assay [4] it was 2100 nM.
Regarding `C=C/C=C\[C@H](C)[C@@H]1OC(=O)/C=C\C=C\[C@@H](C)[C@@H](O)C[C@H](O)/C=C\[C@H](C)[C@H](O)[C@@H](C)CCCC[C@@H](O)[C@@H]1C`, the 50% inhibitory concentration (IC50) in assay [1] was 170 nM; in assay [2], 85 nM; in assay [3], 130 nM; in assay [4], 1500 nM.
Turning to `C=C/C=C\[C@H](C)[C@@H]1OC(=O)/C=C\C=C\[C@@H](C)[C@@H](O)C[C@@H](O)/C=C\[C@H](C)[C@H](O)[C@@H](C)C[C@@H](C)CC[C@@H](O)[C@@H]1C`, the IC50 in assay [1] came out at 410 nM; in assay [2], 150 nM; in assay [3] it was 240 nM; in assay [4], 1100 nM.
